This note sets out measurements from article PMC6930524, “A Prospective Repurposing of Dantrolene as a Multitarget Agent for Alzheimer’s Disease” (Molecules, 2019).

The structures appear in SMILES notation.

By inhibition is commonly meant the change of the read-out against control, counted positive when it falls.

The target in test [1] is T1, Tau hexapeptide (306)VQIVYK(311) (PHF6) (Homo sapiens, UniProt P10636).
T1 construct: Tau hexapeptide (306)VQIVYK(311) (PHF6); purchased JPT Peptide Technologies GmbH, Berlin, Germany; host or cells: synthetic peptide
Kind of test: Inhibition of PHF6 self-aggregation (ThT fluorescence, TFE cosolvent). The format is biochemical. To be noted: inhibitor 25 μM, PHF6 50 μM. The text has this:
As an additional proof of the potential of DAN in interfering with AD-related processes, we investigated the effects on the in vitro self-aggregation of beta amyloid peptide 1–40 (Aβ40) and Tau hexapeptide (306)VQIVYK(311) (PHF6). Aβ40 is used as an in vitro probe of the fibrillization process leading to amyloid fibrils and ultimately to senile plaques in AD [32], while PHF6 represents the highly proaggregating sequence of the repeated domain R3 of Tau protein, responsible of the formation of neurofibrillary tangles and other tauopathies in NDs. […]
Highly aggregating hexapeptide Ac-VQIVYK-NH2 (trifluoroacetate salt; JPT Peptide Technologies GmbH, Berlin, Germany) was used as mimic of tau fibrillization in vitro. […] Incubation samples were prepared in black low-binding, flat-bottomed polystyrene 96-well microtiter plates, containing PHF6 (final conc. 50 μM), inhibitor (25 μM) and ThT (10 μM) in a final volume of 180 μL, and immediately read with Tecan Infinite M1000 Pro instrument. Samples were set in triplicate and their fluorescence values subtracted of the blank. […] Fluorescence was measured at 440/485 excitation/emission wavelength within 2 h at 25 °C. Endpoint fluorescence values (arbitrary fluorescence units, AFU) were used for the calculation of residual aggregation as in Equation (1): % residual aggregation = 100 × AFUsample/AFUcontrol(1)

The nature of test [2]: DPPH radical scavenging assay. To be noted: compound 50 μM, DPPH 100 μM. Type of test: physicochemical. The text has this: Starting from these evidences, we tested DAN in two in vitro models of radical scavenging activity, i.e., the 1,1-diphenyl-2-picryl-hydrazyl (DPPH) and 2,2′-azinobis-(3-ethylbenzothiazoline-6-sulfonic acid) (ABTS) free radical production. Both generate stable nitrogen radicals showing high absorption in visible spectrum, thus allowing easy and straightforward spectrophotometric measures. […] It can be assumed that the antioxidant activity of DAN is independent from its radical scavenging properties.
Already published protocols for DPPH and […] radical scavenging were used. The scavenging of the radical DPPH^·, or the monocation radical ABTS^·+, were determined by measuring the loss of absorbance at 515 or 755 nm, respectively. Samples were prepared in clear polystyrene flat-bottomed 96-well microplates. […] A preliminary absorbance reading at 755 nm allowed to determine the actual ABTS^·+ concentration (normally 60–70 μM; extinction coefficient ε = 12,000) and set the final concentration of inhibitors to 0.2[ABTS^·+]. 215 μL of ABTS^·+ solution were mixed with 35 μL of stock solution of inhibitors and the decrease in absorbance was monitored. Antioxidant activity was determined from Equation (2) as the percentage of radical production of inhibitor containing samples, compared with control: % radical production = 100 × ABSsample/ABScontrol(2)
In general terms: DPPH is a stable violet radical that fades when it is reduced.

`O=C1CN(/N=C/c2ccc(-c3ccc([N+](=O)[O-])cc3)o2)C(O)=N1` [Dantrolene] showed an inhibition at 25 µM in test [1] of 32%. The “DPPH radical scavenging activity” value in test [2] is “no activity”.
